The record followed here is PubChem BioAssay (NCI).

Test systems include A549 NSCLC; COLO 205 colon; OVCAR-5 ovarian; OVCAR-8 ovarian; OVCAR-4 ovarian; OVCAR-3 ovarian; HS 578T breast; NCI-H522 lung.
Common to all, as to test: NCI tumour cell line growth inhibition, 48 h

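Cultured in 96-well plates, cells were exposed to test compound for 48 hours across five concentrations. At the TGI there is no net growth.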

Turning to `CN(C)CC1CCCc2ccccc2C1=O` (configuration not stated), the TGI with A549 NSCLC is 39.5 µM; in the experiment with COLO 205 colon, 12.5 µM; in the experiment with OVCAR-5 ovarian, 33.5 µM; in the experiment on OVCAR-8 ovarian, 4.29 µM; in the experiment on OVCAR-4 ovarian, 2.01 µM; with OVCAR-3 ovarian, 3.57 µM. In the experiment with HS 578T breast, the TGI is 16.3 µM.
Regarding `CC(C)C1=C(Cc2ccccc2)C(=O)O/C1=C\c1ccc(O)c(Cl)c1`, the TGI in the experiment with A549 NSCLC came out at 28.4 µM; with COLO 205 colon, 34.6 µM; in the experiment with OVCAR-5 ovarian, 32.3 µM; in the experiment with OVCAR-8 ovarian, 33.1 µM; with OVCAR-4 ovarian, 27.8 µM; in the experiment with OVCAR-3 ovarian, 28 µM. This compound displayed a TGI in the experiment with HS 578T breast of 33.9 µM.
With `OC1(c2ccc(Cl)cc2)c2c(c3ccccc3c3ccccc23)C2=NCCN21` (configuration not stated), the TGI in the experiment with A549 NSCLC was 59 µM; in the experiment on COLO 205 colon, > 100 µM; in the experiment with OVCAR-5 ovarian, 46 µM; with OVCAR-8 ovarian, 28.5 µM; in the experiment on OVCAR-4 ovarian, 11 µM; with OVCAR-3 ovarian, 62.1 µM. In the experiment on HS 578T breast, this compound showed a TGI of 18.6 µM.
As to `COc1cccc([C@@H]2CC(=O)c3cc4c(cc3N2)OCO4)c1`, the TGI in the experiment with A549 NSCLC, in the experiment with COLO 205 colon, in the experiment on OVCAR-5 ovarian, in the experiment on OVCAR-8 ovarian, with OVCAR-4 ovarian and in the experiment on OVCAR-3 ovarian was > 100 µM each time. Also, the TGI in the experiment with HS 578T breast is > 100 µM.
Regarding `CC1(C)CN=CC(C)(OCc2ccccc2)C(=O)NC(C)(C)CN=CC(C)(OCc2ccccc2)C(=O)N1` (configuration not stated), the TGI with A549 NSCLC, in the experiment on OVCAR-5 ovarian, in the experiment with OVCAR-8 ovarian, in the experiment on OVCAR-3 ovarian and in the experiment with HS 578T breast was > 10 µM throughout.
Take `Cn1c(COC(=O)NC2CCCCC2)c(COC(=O)NC2CCCCC2)c2ccc3cc(C=O)ccc3c21`: the TGI in the experiment on A549 NSCLC, in the experiment on COLO 205 colon, with OVCAR-5 ovarian, in the experiment on OVCAR-8 ovarian, with OVCAR-3 ovarian and with HS 578T breast was > 100 µM in each case.
On to `C[N+](C)(C)CC(=O)N/N=C(/Cc1nc2ccc([N+](=O)[O-])cc2[nH]c1=O)C(=O)Nc1cc(C(F)(F)F)ccc1Cl`, for which the TGI with A549 NSCLC, in the experiment on COLO 205 colon, in the experiment on OVCAR-5 ovarian, in the experiment on OVCAR-8 ovarian, in the experiment on NCI-H522 lung and in the experiment on OVCAR-4 ovarian was > 100 µM in each case. The TGI in the experiment on OVCAR-3 ovarian was > 100 µM.
On to `O=C(CC(c1ccccc1)C(C(=O)c1ccncc1)C(CC(=O)c1ccncc1)c1ccccc1)c1ccncc1` (configuration not stated), for which the TGI in the experiment with A549 NSCLC, with COLO 205 colon, in the experiment on OVCAR-5 ovarian, with OVCAR-8 ovarian, with OVCAR-3 ovarian and in the experiment on HS 578T breast was > 100 µM each time.
Turning to `COc1ccc(C2=NNC(c3cc4cc(Br)ccc4nc3Cl)C2)cc1` (configuration not stated), the TGI in the experiment on COLO 205 colon is > 25 µM; in the experiment on OVCAR-5 ovarian it was > 25 µM; in the experiment with OVCAR-4 ovarian, > 25 µM; in the experiment with OVCAR-3 ovarian it was > 25 µM; in the experiment on HS 578T breast, 24.2 µM.
With `O=C(Nc1ccc(Sc2ccc(N=Nc3c(O)c(S(=O)(=O)O)cc4cc(S(=O)(=O)O)ccc34)cc2)cc1)c1ccc(N=Nc2c(O)c(S(=O)(=O)O)cc3cc(S(=O)(=O)O)ccc23)cc1`, the TGI in the experiment with A549 NSCLC is > 100 µM; in the experiment on COLO 205 colon, 40.2 µM; in the experiment on OVCAR-5 ovarian, > 100 µM; in the experiment with OVCAR-8 ovarian it was > 100 µM; in the experiment with NCI-H522 lung, 35.4 µM; in the experiment on OVCAR-4 ovarian, > 100 µM. Besides, the TGI in the experiment on OVCAR-3 ovarian is 54.9 µM.
Take `CO[C@]12CC(=O)C3(C(C[C@H]4CC5CC[C@H]6C[C@@H](OC(C)=O)CC[C@]6(OC(C)=O)C5C[C@@]43C)C1)C1C[C@H]3[C@@H]4CC[C@H]5C[C@@H](OC(C)=O)CC[C@]5(OC(C)=O)[C@H]4CC[C@]3(C)C12` (some centres not stated): the TGI in the experiment with A549 NSCLC, with COLO 205 colon, in the experiment with OVCAR-5 ovarian, in the experiment on OVCAR-8 ovarian, in the experiment with OVCAR-4 ovarian and in the experiment on OVCAR-3 ovarian was > 100 µM in each case. Besides, the TGI in the experiment with HS 578T breast is > 100 µM.
On to `O=C(c1ccccc1O)c1cc(-c2ncc3c(=O)c4ccccc4oc3n2)c(-c2ccccc2O)[nH]c1=O`, for which the TGI in the experiment with A549 NSCLC is 73.1 µM; with COLO 205 colon it was > 100 µM; in the experiment on OVCAR-5 ovarian, 62.8 µM; in the experiment on OVCAR-8 ovarian, > 90.2 µM; in the experiment with NCI-H522 lung it was 61.5 µM; in the experiment on OVCAR-4 ovarian, 83.5 µM. This compound had a TGI with OVCAR-3 ovarian of 62.4 µM.
For the compound `O=Cc1c(Br)[nH]c2ccccc12`, the TGI in the experiment with A549 NSCLC, in the experiment on COLO 205 colon, with OVCAR-5 ovarian, with OVCAR-8 ovarian, in the experiment with NCI-H522 lung and in the experiment with OVCAR-4 ovarian was > 100 µM each time. In addition, the TGI with OVCAR-3 ovarian is > 100 µM.
Consider `Cn1cnc(SC2=C3C(=O)C=C4S[C@H]5C[C@]42c2c(c(O)c4c6c2=[N+]3CCC=6C=N4)N5)c1CC(N)C(=O)O` (some centres not stated), for which the TGI in the experiment with A549 NSCLC came to 56.7 µM; with COLO 205 colon, 4.44 µM; in the experiment on OVCAR-5 ovarian it was 28.5 µM; with OVCAR-8 ovarian, 27.2 µM; with NCI-H522 lung it was 16.4 µM; in the experiment on OVCAR-4 ovarian, 31.1 µM. For the same compound, the TGI with OVCAR-3 ovarian was 14.6 µM.
